The source of these data is patent publication US10865203B2, “Ligands selective to alpha 6 subunit-containing GABAA receptors and their methods of use” (UWM Research Foundation, Inc., priority 2015, dated 2020).

Entries after “also recorded” stand apart in the source; their conditions may differ.

For one series, the system named is male Wistar rats. The series can be described thus: Rotarod performance, pilot experiment. It counts as in vivo, rat. To be noted: acute, dose range 10-55 mg/kg, 20 min after administration. (In general: In the rotarod test animals must keep their balance on a rotating rod.)
A short description of series [1]: Pharmacokinetic study in mice, plasma and brain. Type of series: in vivo, mouse. The settings on record: nanoemulsion.
Procedure: Five pharmacokinetic studies have been performed; four in male Wistar rats and one in male Swiss mice. […] At predetermined time intervals, i.e., 5, 20, 60, 180, and 720 min after dosing, the blood and brain samples of the rat were collected. […] At predetermined time intervals, i.e., 5, 20, 40, 120, and 360 min, the blood and brain samples of the mouse were collected.
Series [2] is described as follows: Rapid equilibrium dialysis assay, free fraction. To be noted: rat, read-out: free fraction in rat blood. Type of series: in vitro ADME.
Source text: Five pharmacokinetic studies have been performed; four in male Wistar rats and one in male Swiss mice.
Series [3] has as its system mice, apomorphine-induced stereotypy climbing. The series can be described thus: Apomorphine-induced stereotypy behaviors. It counts as in vivo, mouse. To be noted: 3 mg/kg i.p., apomorphine 1 mg/kg s.c. On the procedure: The mouse was placed into a lidded cylindrical cage (diameter: 12 cm; height: 14 cm) made with 1 cm-separated metal grids for 1 hour's habituation. Then, the mouse received apomorphine (1 mg/kg, s.c.) Injection. The behaviors of the mouse were videotaped, and the stereotypy behaviors were scored every 5 min for 1 min, starting from 15 min before apomorphine injection until 60 min after injection.
The stereotypy behaviors induced by apomorphine were scored by reference to a previous report (Park et al. 2003) with modifications as the followings: 0: normal behaviors (sleeping, normal sniffing); 1: increased activity and sniffing (grooming, rearing, paw licking, jumping); 2: occasional clinging to the side wall of the cage with forepaws; 3: intermittent clinging to the top lid of the cage with all four paws; 4: uninterrupted climbing with all four paws to the top lid. The highest rating score during the 1 min-recording period was counted.

In series [4] the test system is mice, forelimb grip strength. Put plainly: Grip strength test. It counts as in vivo, mouse. To be noted: 3 mg/kg, 15 min after treatment. On the procedure: Forelimb grip strength was measured by the grip force of forepaws of the mouse using the sdi grip strength system (San Diego Instrument, San Diego, Calif.). The grip strength was recorded by the maximum of three permissible readings (in grams). The test was conducted every 2 min for three times, and the averaged grip strength was recorded. Animals were treated with the tested drug or vehicle for 15 min before the test.

The test system of another series is mice, step-down latency. The series can be described thus: Sedation assessment. Type of series: in vivo, mouse. The settings on record: 3 mg/kg i.p. On the procedure:
The degree of sedation was measured by the latency for a mouse to completely step down from a slightly (3 cm) raised plastic platform (11×8 cm) by reference to a previous report (Horan et al. 1991). The mouse was placed on the platform 15 min after receiving i.p. Injection of the tested drug. The latency (in sec) for the mouse to step down the platform with all four paws was recorded. The baseline latency of each mouse before drug treatment was measured and, if longer than 15 sec, the mouse was discarded from the study. A cut-off time of 60 sec was taken as the maximal sedative effect. The percentage of sedation was calculated by the formula: sedation %=(test latency−baseline latency)/(60−baseline latency)×100%.

The subject of series [5] is c-Fos-ir neurons in the TNC of Wistar rats. The series can be described thus: Migraine model: capsaicin (i.c.)-induced neuronal activation in the TCC. It counts as in vivo, rat. The settings on record: i.p., capsaicin 10 nmol i.c., 2 hours after. On the procedure: Intra-cisteral instillation of capsaicin. Under anesthesia with chloral hydrate (400 and 100 mg/kg, i.p., respectively, for inducing and maintaining), the rat received a midline skin incision from the occipital protuberance to the upper cervical area. After catheterization with a catheter (PE-10, SIMS Portex Ltd, Hythe, UK) inserted 3 mm deep into the cisterna magna, the rat was placed in a prone position for 6 h. Then, the capsaicin solution (10 nmol, 100 μL) was instilled through the catheter into the cisterna magna over 1 min. The rat was then placed in a reverse Trendelenburg position (−30 degrees) for 30 min in order to facilitate capsaicin distribution within the subarachnoid space, followed by the prone position for another 90 min. […]
Measurement of the total number of C-fos-ir neurons in the TCC. C-Fos-ir neurons, i.e., neurons with stained nuclei, were counted under a microscope (Olympus BX51, Essex, UK) by an observer blinded to the treatment group. […] The total number of c-Fos-ir TCC neurons were estimated based on the formular derived in our previous study (Fan et al., 2012): 16(N1+N2)/2+53(N2+N3)/2, where N1, N2, and N3 were the c-Fos-ir neuronal numbers measured at […] from the obex, respectively.

In the case of `[2H]C([2H])([2H])Oc1ccc(-n2nc3c4ccc(OC)cc4[nH]cc-3c2=O)cc1` [DK-I-56-1, 7-Methoxy-2-(4-methoxy-d3-phenyl)-2,5-dihydro-3H-pyrazolo[4,3-c]quinolin-3-one], in the series with male Wistar rats, the rotarod performance result is given as “did not impair”. Further, in series [1] (10 mg/kg i.p.), the “total concentrations in mouse brain” value is “submicromolar”. The “maximum concentration in mouse brain” value in series [1] (30 mg/kg i.p.) is 7.5 µmol/L. The fraction unbound in series [2] was less than 0.005.

For the compound `COc1ccc(-n2nc3c4ccc(OC)cc4[nH]cc-3c2=O)cc1` [Compound 6, 7-Methoxy-2-(4-methoxyphenyl)-2,5-dihydro-3H-pyrazolo[4,3-c]quinolin-3-one], the “stereotypy climbing behaviors induced by apomorphine” value in series [3] is “did not affect”. For the same compound, the grip strength entry in series [4] is given as “did not affect”. Also, in the series on mice, step-down latency, the sedation result is “neither displayed any significant sedation”. In series [5], the “number of c-Fos-ir neurons in the TNC induced by i.c. capsaicin” value is given as “significantly decreased; also recorded: reduces”.
